Key:
A549 = experiment: Cytotoxicity against human A549 cells after 48 hrs; type: functional, cell-based; settings: A549, 48 h
HL-60 = experiment: Cytotoxicity against human HL60 cells after 48 hrs; type: functional, cell-based; settings: HL-60, 48 h
RPMI-8226 = experiment: Cytotoxicity against human RPMI8226 cells after 48 hrs; type: functional, cell-based; settings: RPMI-8226, 48 h
Liver = experiment: Antioxidant activity in Sprague-Dawley rat liver assessed as inhibition of malonaldehyde; type: functional, tissue-based
Kidney = experiment: Antioxidant activity in Sprague-Dawley rat kidney assessed as inhibition of malonaldehyde; type: functional, tissue-based
Heart = experiment: Antioxidant activity in Sprague-Dawley rat heart assessed as inhibition of malonaldehyde; type: functional, tissue-based

Row | Structure (SMILES) | IC50 (A549) [nM] | IC50 (HL-60) [nM] | IC50 (RPMI-8226) [nM] | IC50 (Liver) [µM] | IC50 (Kidney) [µM] | IC50 (Heart) [µM]
1 | COc1cc([C@@H]2c3cc4c(cc3[C@@H](NC(=O)[C@H](CCSC)NC(=O)OC3CC(C)(C)N([O])C(C)(C)C3)[C@H]3COC(=O)[C@H]23)OCO4)cc(OC)c1O | 420 | 670 | 480 | 6.85 | 7.55 | 5.89
2 | COc1cc([C@@H]2c3cc4c(cc3[C@@H](NC(=O)[C@H](CC(C)C)NC(=O)OC3CC(C)(C)N([O])C(C)(C)C3)[C@H]3COC(=O)[C@H]23)OCO4)cc(OC)c1O | 190 | 160 | 89 | 8.85 | 8.47 | –
3 | COc1cc([C@@H]2c3cc4c(cc3[C@@H](NC(=O)[C@@H](NC(=O)OC3CC(C)(C)N([O])C(C)(C)C3)C(C)O)[C@H]3COC(=O)[C@H]23)OCO4)cc(OC)c1O (some centres not stated) | 210 | 210 | 78 | 7.12 | 7.45 | 8.79
4 | COc1cc([C@@H]2c3cc4c(cc3[C@@H](NC(=O)[C@H](C)NC(=O)OC3CC(C)(C)N([O])C(C)(C)C3)[C@H]3COC(=O)[C@H]23)OCO4)cc(OC)c1O | 120 | 220 | 260 | 7.64 | 7.68 | 6.39
5 | COc1cc([C@@H]2c3cc4c(cc3[C@@H](NC(=O)CNC(=O)OC3CC(C)(C)N([O])C(C)(C)C3)[C@H]3COC(=O)[C@H]23)OCO4)cc(OC)c1O | 210 | 320 | 330 | 7.47 | 8.9 | 7.19
6 | COc1cc([C@@H]2c3cc4c(cc3[C@@H](NC(=O)[C@@H](NC(=O)OC3CC(C)(C)N([O])C(C)(C)C3)C(C)C)[C@H]3COC(=O)[C@H]23)OCO4)cc(OC)c1O | 150 | 240 | 61 | 8.69 | 8.88 | 8.04
7 | COc1cc([C@@H]2c3cc4c(cc3[C@@H](NC(=O)[C@H](Cc3ccccc3)NC(=O)OC3CC(C)(C)N([O])C(C)(C)C3)[C@H]3COC(=O)[C@H]23)OCO4)cc(OC)c1O | 210 | 210 | 90 | 6.55 | 9.63 | 7.39
8 | COc1cc([C@@H]2c3cc4c(cc3[C@@H](O[C@@H]3O[C@@H]5CO[C@@H](C)O[C@H]5[C@H](O)[C@H]3O)[C@H]3COC(=O)[C@H]23)OCO4)cc(OC)c1O [ETOPOSIDE] | 290 | 420 | 140 | 43.9 | 23.8 | 40.7
